Several values for one entry are separate records, joined by “and”; a condition that tells them apart may be missing. Identical values can stand only once.
Assays:
hCB1 [1] = target: T1, hCB1 (Homo sapiens, UniProt P21554); assay: bioSensAll ebBRET signaling profiling, hCB1; format: cell-based; parameters: host or cells: HEK293SL cells, transient PEI transfection; settings: for Barr2+GRK2 hCB1 response: Barr2+GRK2 biosensor; for Gi1 hCB1 / GoB hCB1: single replicate values, FigS6a
CB1 (rCB1) [2] = target: T2, CB1 (rCB1) (Rattus norvegicus, UniProt P20272); assay: Radioligand competition binding, [3H]-CP-55,940, rat brain membranes
CB1 (rCB1) [3] = target: T2, CB1 (rCB1); assay: Single-point radioligand displacement screen; format: binding
hCB1 [4] = target: T1, hCB1; assay: Lance Ultra cAMP accumulation assay, CHO cells; format: cell-based; parameters: expressed in transfected cells; settings: replicates, sheet FigureS2a;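 note: human CB1R stably expressed in CHO cells, ligands co-incubated with forskolin at room temperature, read-out is lowering of forskolin-stimulated cAMP accumulation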

T1 sequence (P21554 whole entry): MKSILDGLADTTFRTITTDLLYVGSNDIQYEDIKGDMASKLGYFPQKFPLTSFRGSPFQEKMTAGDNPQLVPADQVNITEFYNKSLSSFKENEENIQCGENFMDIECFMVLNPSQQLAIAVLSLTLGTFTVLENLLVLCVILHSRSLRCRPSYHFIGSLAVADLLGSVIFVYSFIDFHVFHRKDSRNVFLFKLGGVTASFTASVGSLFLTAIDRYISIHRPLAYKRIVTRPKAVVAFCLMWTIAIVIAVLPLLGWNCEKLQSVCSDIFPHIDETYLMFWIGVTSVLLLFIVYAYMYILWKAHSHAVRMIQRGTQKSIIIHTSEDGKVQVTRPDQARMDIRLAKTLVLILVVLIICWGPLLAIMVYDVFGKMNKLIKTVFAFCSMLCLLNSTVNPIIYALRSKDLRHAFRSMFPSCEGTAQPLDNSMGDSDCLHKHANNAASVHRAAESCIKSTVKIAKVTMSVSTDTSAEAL
T2 sequence (P20272 whole entry): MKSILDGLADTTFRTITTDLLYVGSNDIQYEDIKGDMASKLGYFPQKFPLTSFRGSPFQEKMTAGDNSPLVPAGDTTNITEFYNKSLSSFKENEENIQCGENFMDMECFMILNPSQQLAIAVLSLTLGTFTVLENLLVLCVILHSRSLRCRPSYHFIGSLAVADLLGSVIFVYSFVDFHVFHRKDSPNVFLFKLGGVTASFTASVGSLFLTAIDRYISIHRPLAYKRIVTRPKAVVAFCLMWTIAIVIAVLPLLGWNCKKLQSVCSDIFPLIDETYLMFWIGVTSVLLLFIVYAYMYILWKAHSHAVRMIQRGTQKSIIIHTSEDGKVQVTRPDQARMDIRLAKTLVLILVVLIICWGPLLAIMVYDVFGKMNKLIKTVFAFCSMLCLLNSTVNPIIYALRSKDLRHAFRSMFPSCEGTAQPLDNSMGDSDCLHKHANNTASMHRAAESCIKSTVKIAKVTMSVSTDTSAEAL

Cc1nc(CC2CC2)oc1-c1nc(Cc2cc3c(cc2Br)OCO3)no1 [‘7019]
Barr2+GRK2 hCB1 response (hCB1 [1]; Log [Compound] (M) -4.22186): 62.2028
Barr2+GRK2 hCB1 response (hCB1 [1]; Log [Compound] (M) -4.63927): 5.727
Barr2+GRK2 hCB1 response (hCB1 [1]; Log [Compound] (M) -5.05788): -5.441
Barr2+GRK2 hCB1 response (hCB1 [1]; Log [Compound] (M) -5.47381): -3.845
Barr2+GRK2 hCB1 response (hCB1 [1]; Log [Compound] (M) -5.89285): 30.2955
Barr2+GRK2 hCB1 response (hCB1 [1]; Log [Compound] (M) -6.31878): 10.513
Barr2+GRK2 hCB1 response (hCB1 [1]; Log [Compound] (M) -6.72585): 12.1083
Barr2+GRK2 hCB1 response (hCB1 [1]; Log [Compound] (M) -7.14267): 9.875
Barr2+GRK2 hCB1 response (hCB1 [1]; Log [Compound] (M) -7.55284): -7.674
Barr2+GRK2 hCB1 response (hCB1 [1]; Log [Compound] (M) -8): 3.174
Barr2+GRK2 hCB1 response (hCB1 [1]; Log [Compound] (M) -8.22186): 10.513
Barr2+GRK2 hCB1 response (hCB1 [1]; Log [Compound] (M) -8.39794): 2.217
Barr2+GRK2 hCB1 response (hCB1 [1]; Log [Compound] (M) -8.68787): -30.0093
Barr2+GRK2 hCB1 response (hCB1 [1]; Log [Compound] (M) -9.15521): -44.3676
Barr2+GRK2 hCB1 response (hCB1 [1]; Log [Compound] (M) -9.61989): -29.3712
Barr2+GRK2 hCB1 response (hCB1 [1]; Log [Compound] (M) -10.0969): -17.8845
Barr2+GRK2 hCB1 response (hCB1 [1]; Log [Compound] (M) -10.5529): -36.0717
Barr2+GRK2 hCB1 response (hCB1 [1]; Log [Compound] (M) -11.0177): -47.2392
Barr2+GRK2 hCB1 response (hCB1 [1]; Log [Compound] (M) -11.4949): -38.6243
Barr2+GRK2 hCB1 response (hCB1 [1]; Log [Compound] (M) -11.9208): -22.6706
Barr2+GRK2 hCB1 response (hCB1 [1]; Log [Compound] (M) -12.3979): -32.5619
Barr2+GRK2 hCB1 response (hCB1 [1]; Log [Compound] (M) -12.8861): -24.5851
Barr2+GRK2 hCB1 response (hCB1 [1]; Log [Compound] (M) -13.3979): -2.25
Gi1 hCB1 (hCB1 [1]; Log [Compound] (M) -4.22186): -7.329
GoB hCB1 (hCB1 [1]; Log [Compound] (M) -4.22186): -13.0099
Gi1 hCB1 (hCB1 [1]; Log [Compound] (M) -4.63927): -8.042
GoB hCB1 (hCB1 [1]; Log [Compound] (M) -4.63927): -13.6002
Gi1 hCB1 (hCB1 [1]; Log [Compound] (M) -5.05788): -10.1639
GoB hCB1 (hCB1 [1]; Log [Compound] (M) -5.05788): -11.5515
Gi1 hCB1 (hCB1 [1]; Log [Compound] (M) -5.47381): -10.5282
GoB hCB1 (hCB1 [1]; Log [Compound] (M) -5.47381): -15.1627
Gi1 hCB1 (hCB1 [1]; Log [Compound] (M) -5.89285): -9.467
GoB hCB1 (hCB1 [1]; Log [Compound] (M) -5.89285): -15.9787
Gi1 hCB1 (hCB1 [1]; Log [Compound] (M) -6.31878): -6.569
GoB hCB1 (hCB1 [1]; Log [Compound] (M) -6.31878): -12.489
Gi1 hCB1 (hCB1 [1]; Log [Compound] (M) -6.72585): -4.716
GoB hCB1 (hCB1 [1]; Log [Compound] (M) -6.72585): -9.694
Gi1 hCB1 (hCB1 [1]; Log [Compound] (M) -7.14267): 3.012
GoB hCB1 (hCB1 [1]; Log [Compound] (M) -7.14267): -8.531
Gi1 hCB1 (hCB1 [1]; Log [Compound] (M) -7.55284): 0.08255
GoB hCB1 (hCB1 [1]; Log [Compound] (M) -7.55284): -6.326
Gi1 hCB1 (hCB1 [1]; Log [Compound] (M) -8): 2.236
GoB hCB1 (hCB1 [1]; Log [Compound] (M) -8): -8.913
Gi1 hCB1 (hCB1 [1]; Log [Compound] (M) -8.22186): 3.4083
GoB hCB1 (hCB1 [1]; Log [Compound] (M) -8.22186): -2.3673
Gi1 hCB1 (hCB1 [1]; Log [Compound] (M) -8.39794): 2.078
GoB hCB1 (hCB1 [1]; Log [Compound] (M) -8.39794): -8.01
Gi1 hCB1 (hCB1 [1]; Log [Compound] (M) -8.68787): 0.1776
GoB hCB1 (hCB1 [1]; Log [Compound] (M) -8.68787): -4.607
Gi1 hCB1 (hCB1 [1]; Log [Compound] (M) -9.15521): -0.1708
GoB hCB1 (hCB1 [1]; Log [Compound] (M) -9.15521): -5.336
Gi1 hCB1 (hCB1 [1]; Log [Compound] (M) -9.61989): 0.4151
GoB hCB1 (hCB1 [1]; Log [Compound] (M) -9.61989): -6.256
Gi1 hCB1 (hCB1 [1]; Log [Compound] (M) -10.0969): -0.8202
GoB hCB1 (hCB1 [1]; Log [Compound] (M) -10.0969): -5.6139
Gi1 hCB1 (hCB1 [1]; Log [Compound] (M) -10.5529): 1.635
GoB hCB1 (hCB1 [1]; Log [Compound] (M) -10.5529): -5.77
Gi1 hCB1 (hCB1 [1]; Log [Compound] (M) -11.0177): 0.2092
GoB hCB1 (hCB1 [1]; Log [Compound] (M) -11.0177): -3.426
Gi1 hCB1 (hCB1 [1]; Log [Compound] (M) -11.4949): -0.7251
GoB hCB1 (hCB1 [1]; Log [Compound] (M) -11.4949): -5.058
Gi1 hCB1 (hCB1 [1]; Log [Compound] (M) -11.9208): -0.5034
GoB hCB1 (hCB1 [1]; Log [Compound] (M) -11.9208): -3.392
Gi1 hCB1 (hCB1 [1]; Log [Compound] (M) -12.3979): 1.698
GoB hCB1 (hCB1 [1]; Log [Compound] (M) -12.3979): -7.2806
Gi1 hCB1 (hCB1 [1]; Log [Compound] (M) -12.8861): 0.8586
GoB hCB1 (hCB1 [1]; Log [Compound] (M) -12.8861): -4.763
Gi1 hCB1 (hCB1 [1]; Log [Compound] (M) -13): 6.94
GoB hCB1 (hCB1 [1]; Log [Compound] (M) -13): -5.215
Gi1 hCB1 (hCB1 [1]; Log [Compound] (M) cell empty): 3.028
GoB hCB1 (hCB1 [1]; Log [Compound] (M) cell empty): -6.482
radioligand binding remaining, competition curve (Figure2e), replicate values (CB1 (rCB1) [2]; log[drug] -3.643): 14.0395 and 10.3537 and 12.7126
radioligand binding remaining, competition curve (Figure2e), replicate values (CB1 (rCB1) [2]; log[drug] -4.35655): 11.9492 and 13.8721 and 12.5783
radioligand binding remaining, competition curve (Figure2e), replicate values (CB1 (rCB1) [2]; log[drug] -5.07): 46.5819 and 49.8809 and 53.387
radioligand binding remaining, competition curve (Figure2e), replicate values (CB1 (rCB1) [2]; log[drug] -5.783): 89.8305 and 82.4446 and 90.6893
radioligand binding remaining, competition curve (Figure2e), replicate values (CB1 (rCB1) [2]; log[drug] -6.496): 105.085 and 92.9907 and 91.4056
radioligand binding remaining, competition curve (Figure2e), replicate values (CB1 (rCB1) [2]; log[drug] -7.21): 98.1356 and 103.28 and 99.3733
radioligand binding remaining, competition curve (Figure2e), replicate values (CB1 (rCB1) [2]; log[drug] -7.923): 89.0395 and 99.5785 and 100.597
radioligand binding remaining, competition curve (Figure2e), replicate values (CB1 (rCB1) [2]; log[drug] -8.636): 97.4011 and 107.312 and 98.9257
pKi [95% CI] (CB1 (rCB1) [2]; rCB1): 5.39 [5.27 –5.52]
% 1H-CP-55,940 displacement (mean) from single point screen (CB1 (rCB1) [3]; 10 µM, 1 µM or 300 nM by cell colour (not visible)): 69.08%
rep1_displacement (CB1 (rCB1) [3]; Figure 1c source data, replicate 1): 67.1
rep2_displacement (CB1 (rCB1) [3]; Figure 1c source data, replicate 2): 70.3
rep3_displacement (CB1 (rCB1) [3]; Figure 1c source data, replicate 3): 69.9
cAMP assay signal, concentration-response point (hCB1 [4]; compound 0.01 nM): 0.00339 and 0.00303 and 0.003953
cAMP assay signal, concentration-response point (hCB1 [4]; compound 0.1 nM): 0.003311 (2×) and 0.004082
cAMP assay signal, concentration-response point (hCB1 [4]; compound 1 nM): 0.003289 and 0.004926 and 0.003401
cAMP assay signal, concentration-response point (hCB1 [4]; compound 10 nM): 0.003247 and 0.002457 and 0.002907
cAMP assay signal, concentration-response point (hCB1 [4]; compound 100 nM): 0.002793 and 0.0025 and 0.003861
cAMP assay signal, concentration-response point (hCB1 [4]; compound 1000 nM): 0.003175 and 0.003571 and 0.003759
cAMP assay signal, concentration-response point (hCB1 [4]; compound 10000 nM): 0.00431 and 0.005952* and 0.003571
cAMP assay signal, concentration-response point (hCB1 [4]; compound 100000 nM): 0.0007716 and 0.001742 and 0.0006817

— paper PMC11882969 (Nature Communications, 2025)
